Results taken from US20070082910A1, “Specific nad(p)h oxidase inhibitor” (Mitsubishi Pharma Corporation, priority 2003, published 2007).
pIC50: −log10 of the molar value.

Key:
[1] = system: leukocyte NADPH oxidase; test: Effect on leukocyte NADPH oxidase (PMA-stimulated lucigenin chemiluminescence); assay type: cell-based, rat
Experimental: Blood was drawn from the abdominal aorta of normal male Wister rats (Japan SLC) and immediately mixed with an ice-cold lysis buffer at 42 mL of the buffer per 3 mL of the blood.
After 5 min, the mixture was centrifuged at 4° C., 1100 rpm for 5 min. The precipitate was suspended in an ice-cold Lysis buffer, and centrifuged again at 4° C., 1100 rpm for 5 min. This operation was repeated 3 times to obtain leukocytes. The obtained leukocytes were suspended in Krebs-Hepes buffer and the number of the cells was adjusted to 1×10^6/ml. 0.25 mM Lucigenin and the test agent were added, Phorbol 12-myristate 13-acetate (hereinafter to be indicated as “PMA”, SIGMA) was further added, and the chemiluminescence value was measured at 37° C. for 10 min.
The inhibitory rate (%) was calculated by the following formula: inhibitory rate (%)=100−[(A−C)/(B−C))×[…] wherein A is the total chemiluminescence value of the leukocyte suspension with the addition of the test compound, B is the total chemiluminescence value of the leukocyte suspension (control) without addition of the test compound, and C is the total chemiluminescence value of the leukocyte suspension without stimulation with PMA.

[2] = system: NAD(P)H oxidase in normal rat aorta; test: Effect on normal rat NAD(P)H oxidase (superoxide anion production in aorta after administration); assay type: in vivo; settings: 10 mg/kg for 3 days
Experimental: The test compound (10 mg/kg) was administered to normal male Wistar rats (Japan SLC) for 3 days, and the production amount of superoxide anion in the aorta was measured in the same manner as in Experimental Example 2.
The inhibitory rate (%) was calculated by the following formula: inhibitory rate (%)=100−(A/B)×100 wherein A is the standardized chemiluminescence value of the rats administered with the test compound, and B is the standardized chemiluminescence value of the rats without administration of the test compound (control group).

[3] = system: cerebral infarction model; test: Cerebral infarction model (ischemic brain disorder model), ligation of both common carotid arteries; assay type: in vivo, mouse
Experimental: Male ICR mice (Japan SLC) were anesthetized with ether and fixed in the dorsal position. The both common carotid arteries were ligated using a thread. The wound was closed, and the mice were released in a cage. The death of the mouse was confirmed every 30 min up to 240 min, and cumulative mortality rate of each group was determined. Compound B was orally administered 1 hr before common carotid artery ligation.

[4] = system: NAD(P)H oxidase; test: IL-8 production inhibitory effect in HUVEC cultured with 44 mM glucose; assay type: cell-based, human; settings: for inhibitory rate (%) of IL-8 production: 8 days
Experimental: NAD(P)HOxidase Inhibitory Effect (Method)
44 mM glucose was added to Human Umbilical Vein Endothelial Cells (Bio Whittaker, hereinafter to be indicated as “HUVEC”), and cells were cultured for 8 days. Then, a lysis buffer containing a surfactant, Triton-X Nonidet P-40, was added, and interleukin-8 (hereinafter to be indicated as “IL-8”) in the cell lysate, which had been produced by NAD(P)H oxidase was measured by an enzyme-linked […]. The test compound was added one day before glucose addition.
The inhibitory rate was calculated from the following formula: inhibitory rate (%)=100−[(A−C)/(B−C)]×100
wherein A is IL-8 production of a cell cultured in the presence of 44 mM glucose with addition of the test compound, B is IL-8 production of a cell cultured in the presence of 44 mM glucose without addition of the test compound, and C is IL-8 production of a cell cultured in the absence of 44 mM glucose and the test compound. The IC50 value was calculated from the dose-effect line drawn by the least squares method based on the obtained inhibitory rate.

[5] = system: NAD(P)H oxidase in diabetic rat aorta; test: NAD(P)H oxidase activity (superoxide anion production, lucigenin chemiluminescence) in aorta of streptozotocin diabetic rats after oral administration; assay type: in vivo; settings: 10 mg/kg oral, once a day for 3 days
Experimental: Streptozotocin (40 mg/kg) dissolved in 0.05 M citric acid buffer (pH 4.5) was administered into the tail vein of male Wistar rats (Japan SLC) to prepare diabetic rats. At 1 week to 8 weeks from the intravenous injection of streptozotocin, blood was drawn from the tail vein using a capillary treated with heparin, which was immediately cooled with ice and centrifuged at 3000 rpm, 15 min, 4° C. to give serum. The blood glucose level was measured by enzyme assay using a glucose measurement kit “GLU neo sinotest” (sinotest) and a microplate reader (SPECTRA MAX250, Molecular Devices).
The NAD(P)H oxidase activity was measured by the following method, which was modified by the method of the David. G. Harrison et al. (J. Clin. Invest. 91, 2546-2551, 1993), at 4 days from the start of the test, with superoxide anion production in aorta as an index.
To be specific, normal rat or diabetic rat free of the above-mentioned treatment was exsanguinated from the abdominal aorta, their thoracic aorta was removed. The removed thoracic aorta was immersed in Krebs-Hepes buffer and marginal tissues were removed to prepare an about 5 mm ring specimen. This ring specimen was preincubate in Krebs-Hepes buffer at 37° C. for 10 min and transferred to Krebs-Hepes buffer containing 0.25 mM lucigenin (SIGMA). 500 μM NADH (SIGMA) was added and chemiluminescence value (chemiluminescence: unit RLU: relative light units) was measured using a luminometer (MULTI-BIOLUMAT LB9505C, Warrack.Berthold) at 37° C. for 10 min. The total value of chemiluminescence was calculated from the area under the curve (hereinafter to be referred to as “AUC”) drawn by plotting the chemiluminescence value (vertical axis) relative to the measurement time (horizontal axis). The measured total value of chemiluminescence was divided by the wet weight of the vascular ring specimen and standardized to the superoxide anion production per aorta unit weight.
The inhibitory rate (%) was calculated from the following formula: inhibitory rate (%)=100−[(A−C)/(B−C)]×100
wherein A was the standardized value of chemiluminescence of diabetic rat administered with the test compound, B was the standardized value of chemiluminescence of diabetic rat without administration of the test compound, and C was the standardized value of chemiluminescence of normal rat without administration of the test compound.

Which “inhibitory rate (%), leukocyte NADPH oxidase” value ([1]; 1 μM, PMA-stimulated rat leukocytes, mean ± standard error) does the source give for C[C@@H](Nc1nnc(-c2ccccc2)c2ccccc12)c1ccccc1 [compound B] here?
Its value is 11.7 ± 24.2%.

And the “inhibitory effect on leukocyte NADPH oxidase” value ([1]; result in words)?
Its value is “did not show an inhibitory effect on leukocyte NADPH oxidase”.

What about the “inhibitory rate (%), NAD(P)H oxidase in normal rat aorta” value [2] of the same compound?
Its value is −1.3%.

What about the “effect on superoxide anion production in normal rat” value ([2]; result in words) of the same compound?
Its value is “did not affect the superoxide anion production”.

And the “chemiluminescence (×10^5 RLU/wet weight of aorta)” value ([2]; normal rat aorta, mean ± standard error)?
Its value is 4.01 ± 6.0 ×10^5 RLU/wet weight of aorta.

And the “number of deaths in interval” value ([3]; 1 mg/kg oral 1 hr before ligation, 0-30 min)?
Its value is 15.

And the “number of deaths in interval” value ([3]; 1 mg/kg oral, 31-60 min)?
Its value is 2.

What about the “number of deaths in interval” value ([3]; 1 mg/kg oral, 61-90 min) of the same compound?
Its value is 2.

And the “number of deaths in interval” value ([3]; 1 mg/kg oral, 91-120 min)?
The value was 0.

What about the “number of deaths in interval” value ([3]; 1 mg/kg oral, 121-150 min) of the same compound?
The value was 0.

What about the “number of deaths in interval” value ([3]; 1 mg/kg oral, 151-180 min) of the same compound?
The value was 0.

What about the “number of deaths in interval” value ([3]; 1 mg/kg oral, 181-210 min) of the same compound?
The value was 0.

And the “number of deaths in interval” value ([3]; 1 mg/kg oral, 211-240 min)?
Its value is 0.

What about the cumulative mortality rate ([3]; 1 mg/kg oral, up to 30 min) of the same compound?
The cumulative mortality rate was 78.9%.

And the cumulative mortality rate ([3]; 1 mg/kg oral, up to 60 min)?
The cumulative mortality rate was 84.2%.

What about the cumulative mortality rate ([3]; 1 mg/kg oral, up to 90 min) of the same compound?
Its cumulative mortality rate is 94.7%.

What about the “number of deaths in interval” value ([3]; 3 mg/kg oral 1 hr before ligation, 0-30 min) of the same compound?
Its value is 11.

What about the “number of deaths in interval” value ([3]; 3 mg/kg oral, 31-60 min) of the same compound?
Its value is 5.

And the “number of deaths in interval” value ([3]; 3 mg/kg oral, 61-90 min)?
The value was 0.

What about the “number of deaths in interval” value ([3]; 3 mg/kg oral, 91-120 min) of the same compound?
The value was 0.

What about the “number of deaths in interval” value ([3]; 3 mg/kg oral, 121-150 min) of the same compound?
Its value is 1.

And the “number of deaths in interval” value ([3]; 3 mg/kg oral, 151-180 min)?
Its value is 0.

And the “number of deaths in interval” value ([3]; 3 mg/kg oral, 181-210 min)?
The value was 0.

And the “number of deaths in interval” value ([3]; 3 mg/kg oral, 211-240 min)?
Its value is 0.

What about the cumulative mortality rate ([3]; 3 mg/kg oral, up to 30 min) of the same compound?
Its cumulative mortality rate is 57.9%.

What about the cumulative mortality rate ([3]; 3 mg/kg oral, up to 60 min) of the same compound?
Its cumulative mortality rate is 84.2%.

And the cumulative mortality rate ([3]; 3 mg/kg oral, up to 150 min)?
Its cumulative mortality rate is 89.5%.

What about the “number of deaths in interval” value ([3]; 10 mg/kg oral 1 hr before ligation, 0-30 min) of the same compound?
The value was 8.

And the “number of deaths in interval” value ([3]; 10 mg/kg oral, 31-60 min)?
The value was 6.

What about the “number of deaths in interval” value ([3]; 10 mg/kg oral, 61-90 min) of the same compound?
The value was 2.

And the “number of deaths in interval” value ([3]; 10 mg/kg oral, 91-120 min)?
Its value is 1.

And the “number of deaths in interval” value ([3]; 10 mg/kg oral, 121-150 min)?
The value was 0.

What about the “number of deaths in interval” value ([3]; 10 mg/kg oral, 151-180 min) of the same compound?
The value was 0.

What about the “number of deaths in interval” value ([3]; 10 mg/kg oral, 181-210 min) of the same compound?
Its value is 0.

And the “number of deaths in interval” value ([3]; 10 mg/kg oral, 211-240 min)?
The value was 0.

What about the cumulative mortality rate ([3]; 10 mg/kg oral, up to 30 min) of the same compound?
The cumulative mortality rate was 40.0%.

What about the cumulative mortality rate ([3]; 10 mg/kg oral, up to 60 min) of the same compound?
The cumulative mortality rate was 70.0%.

What about the cumulative mortality rate ([3]; 10 mg/kg oral, up to 90 min) of the same compound?
The cumulative mortality rate was 80.0%.

What about the cumulative mortality rate ([3]; 10 mg/kg oral, up to 120 min) of the same compound?
The cumulative mortality rate was 85.0%.

What about the “mortality rate improving effect in brain ischemia model” value ([3]; result in words) of the same compound?
The value was “a mortality rate improving effect was seen”.

And the pIC50 ([4]; from dose-effect line by least squares)?
The pIC50 was > 8.00.

What about the “inhibitory rate (%) of IL-8 production” value ([4]; test compound concentration 0.01 μM) of the same compound?
The value was 63.8%.

What about the “inhibitory rate (%) of IL-8 production” value ([4]; test compound concentration 0.1 μM) of the same compound?
Its value is 77.8%.

And the “inhibitory rate (%) of IL-8 production” value ([4]; test compound concentration 1 μM)?
The value was 72.0%.

What about the “inhibitory rate (%), NAD(P)H oxidase in diabetic rat aorta” value [5] of the same compound?
Its value is 88.5%.
